Laboratory results reported in patent publication US20240158693A1, “Probe for Hydrogen Sulfide Detection, Method for Manufacturing Same, and Composition for Hydrogen Sulfide Detection, Comprising Same” (Korea Institute of Ocean Science &Technology, priority 2020, published 2024).
Where a name gives a salt, the structure may show the parent alone.

What was measured:
[1] = Optimization of sensing conditions for H2S detection (biothiols with and without 2-FBBA)
Method: The samples containing HSA (100 μM) and each biothiol (H2S 100 μM, Cys 250 μM, Hcy 100 μM, and GSH 10 μM) with and without 2-formyl benzene boronic acid (2-FBBA) in SPB (pH 7.4, 20 mM) were incubated for 15 minutes at 25° C. KF-DNBS (25 μM, 10% DMSO) was added to the samples followed by the measurement of fluorescence spectra under excitation at 420 nm at 37° C.

HSA = HSA (Homo sapiens, UniProt P02768); assay: Comparison of fluorescence change of KF and KF-DNBS with HSA; details: SPB pH 7.4, excitation 420 nm
Sequence of HSA (P02768 25-609): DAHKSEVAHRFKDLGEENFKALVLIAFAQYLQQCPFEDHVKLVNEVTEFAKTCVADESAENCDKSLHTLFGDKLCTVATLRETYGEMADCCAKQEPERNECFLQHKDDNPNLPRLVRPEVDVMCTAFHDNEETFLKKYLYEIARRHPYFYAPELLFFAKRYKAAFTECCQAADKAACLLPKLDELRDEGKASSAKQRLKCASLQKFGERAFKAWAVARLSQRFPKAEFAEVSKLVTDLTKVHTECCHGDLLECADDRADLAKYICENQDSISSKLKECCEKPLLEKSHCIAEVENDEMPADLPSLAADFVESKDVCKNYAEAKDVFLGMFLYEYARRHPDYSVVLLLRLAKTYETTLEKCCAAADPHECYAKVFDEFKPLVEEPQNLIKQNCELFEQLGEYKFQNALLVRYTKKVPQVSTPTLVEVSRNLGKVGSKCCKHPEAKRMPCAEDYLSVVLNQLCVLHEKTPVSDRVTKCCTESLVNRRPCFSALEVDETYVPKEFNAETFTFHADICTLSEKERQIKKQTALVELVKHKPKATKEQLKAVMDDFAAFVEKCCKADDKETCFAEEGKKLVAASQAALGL
Method: Stock solutions of KF and KF-DNBS were prepared in DMSO, and a stock solution of HSA was prepared in distilled water. Blanks, each containing only KF or KF-DNBS (25 μM, 10% DMSO), and samples, each containing KF or KF-DNBS (25 μM, 10% DMSO) with HSA (100 μM) in sodium phosphate buffer (SPB, pH 7.4, 20 mM), were prepared. Fluorescence spectra were then recorded using the fluorescence spectrophotometer under excitation at 420 nm.

[2] = Sensing behavior of KF-DNBS with HSA as selective H2S probe (H2S titration, LOD)
Method: The experiment was carried out in triplicate. The limit of detection (LOD) was calculated using 3σ/slope based on the titration experiment, in which σ was the standard deviation of the blank measurements and the slope value was obtained from a plot of the fluorescence intensity versus H2S concentration.

[3] = Selectivity of KF-DNBS toward H2S over other biological analytes
Method: Next, the selectivity of KF-DNBS with HSA toward H2S was investigated using various biologically relevant species, including biothiols (Cys, Hcy, and GSH), reactive sulfur species (RSS), and reactive oxygen species (ROS) (HSO4^−, SO4^2−, SO3^2−, S2O3^2−, SCN^−, H2O2, and ClO^−), and anions (CN^−, F^−, Br^−, NO3^−, NO2^−, HCO3^−, and CH3CO2^−).
A blank containing no analyte and a sample containing each analyte (H2S 100 μM, Cys 250 μM, Hcy 100 μM, GSH 10 μM, HSO4^− 100 μM, SO4^2− 100 μM, SO3^2− 100 μM, S2O3^2− 100 μM, SCN^− 100 μM, CN^− 100 μM, F^− 100 μM, Br^− 100 μM, NO3^− 100 μM, NO2^− 100 μM, HCO3^− 100 μM, CH3CO2^− 100 μM, H2O2 100 μM, ClO^− 100 μM) were prepared followed by the addition of HSA (100 μM) and 2-FBBA (2 mM) to SPB (pH 7.4, 20 mM). After incubation for 15 minutes at 25° C., KF-DNBS (25 μM, 10% DMSO) was added to each sample, and then fluorescence intensity at 500 nm was recorded using the fluorescence spectrophotometer under excitation at 420 nm at 37° C. The experiment was conducted in triplicate.

[4] = KF-DNBS 25 μM with HSA 100 μM, 2-FBBA 2 mM, SPB pH 7.4

For “2-formyl benzene boronic acid [2-FBBA, reference compound]”, the “masking of the reactivity of Cys and Hcy upon KF-DNBS” value ([1]; 2-FBBA 2 mM, Cys 250 μM, Hcy 100 μM, HSA 100 μM) was “completely block”.
With `CCN(CC)c1ccc(-c2cc3c(s2)c(-c2ccc(OS(=O)(=O)c4ccc([N+](=O)[O-])cc4[N+](=O)[O-])cc2)cc(=O)n3C)cc1` (as salt: benzenesulfonate) [KF-DNBS, 4-(2-(4-(diethylamino)phenyl)-4-methyl-5-oxo-4,5-dihydrothieno[3,2-b]pyridin-7-yl)phenyl 2,4-dinitrobenzenesulfonate] the melting point was 96 to 98 °C.
With `CCN(CC)c1ccc(-c2cc3c(s2)c(-c2ccc(O)cc2)cc(=O)n3C)cc1` [KF, 2-(4-(diethylamino)phenyl)-7-(4-hydroxyphenyl)-4-methylthieno[3,2-b]pyridin-5(4H)-one] the melting point was 250 to 251 °C, the “fluorescence shift by addition of HSA” value (HSA; 25 μM, 10% DMSO, HSA 100 μM) was “shifted slightly from 550 to 500” and the “HSA concentration range of linear fluorescence increase” value (HSA) was 5 to 50 µM.
In the case of `CCN(CC)c1ccc(-c2cc3c(s2)c(-c2ccc(OS(=O)(=O)c4ccc([N+](=O)[O-])cc4[N+](=O)[O-])cc2)cc(=O)n3C)cc1` [KF-DNBS, 4-(2-(4-(diethylamino)phenyl)-4-methyl-5-oxo-4,5-dihydrothieno[3,2-b]pyridin-7-yl)phenyl 2,4-dinitrobenzenesulfonate], the “fluorescence change induced by Cys and Hcy” value ([1]; KF-DNBS 25 μM with HSA 100 μM, Cys 250 μM, Hcy 100 μM, without 2-FBBA) was “noticeable fluorescence change”, the “fluorescence intensity at 500 nm on addition of H2S” value ([1]; KF-DNBS 25 μM with HSA 100 μM, H2S 100 μM, SPB pH 7.4, without 2-FBBA) was “increased significantly” and the “selectivity to H2S over other biothiols” value ([1]; KF-DNBS with HSA in the presence of 2-FBBA (2 mM)) was “superior selectivity”. For the same compound, the “H2S concentration range of linear fluorescence increase” value [2, 4] was 5 to 100 µM, the “detection limit (3σ/slope) for H2S” value [2, 4] was 3.2 µM and the “time for fluorescence intensity at 500 nm to reach the maximum value” ([2]; KF-DNBS 25 μM, HSA 100 μM, 2-FBBA 2 mM, SPB pH 7.4, H2S added, 37° C.) was no more than 20 min. The “H2S response in various buffer conditions” value ([2]; KF-DNBS with HSA, H2S 100 μM, pH 5 to pH 9, 20 mM) was “worked well”, the “fluorescence enhancement at 500 nm with various analytes” value ([3]; KF-DNBS 25 μM, HSA 100 μM, 2-FBBA 2 mM, SPB pH 7.4, 18 analytes) was “remarkable fluorescence enhancement was observed only for H2S” and the “selectivity toward H2S” value ([3]; KF-DNBS with HSA and masking reagent 2-FBBA, biothiols, RSS, ROS, anions) was “high selectivity”. The “fluorescence in the presence or absence of HSA” value (HSA; 25 μM, 10% DMSO, HSA 100 μM) was “weak fluorescence”.
